Laboratory results from patent US10670605B2, “Cysteine reactive probes and uses thereof” (The Scripps Research Institute, priority 2015, dated 2020).
Structures can show the parent of a compound that is named as a salt.

What was measured:
Assay in all cases: isoTOP-ABPP of compound-treated primary human T cells
Assay type in all cases: cell-based
[1] = biological target: Cys residues in primary human T cells (Homo sapiens, UniProt P21580); conditions: TNFAIP3 C54 (P21580)
[2] = biological target: T1, Cys residues in primary human T cells (Homo sapiens, UniProt P49588); conditions: AARS C773 (P49588)
T1 sequence (P49588 1-968): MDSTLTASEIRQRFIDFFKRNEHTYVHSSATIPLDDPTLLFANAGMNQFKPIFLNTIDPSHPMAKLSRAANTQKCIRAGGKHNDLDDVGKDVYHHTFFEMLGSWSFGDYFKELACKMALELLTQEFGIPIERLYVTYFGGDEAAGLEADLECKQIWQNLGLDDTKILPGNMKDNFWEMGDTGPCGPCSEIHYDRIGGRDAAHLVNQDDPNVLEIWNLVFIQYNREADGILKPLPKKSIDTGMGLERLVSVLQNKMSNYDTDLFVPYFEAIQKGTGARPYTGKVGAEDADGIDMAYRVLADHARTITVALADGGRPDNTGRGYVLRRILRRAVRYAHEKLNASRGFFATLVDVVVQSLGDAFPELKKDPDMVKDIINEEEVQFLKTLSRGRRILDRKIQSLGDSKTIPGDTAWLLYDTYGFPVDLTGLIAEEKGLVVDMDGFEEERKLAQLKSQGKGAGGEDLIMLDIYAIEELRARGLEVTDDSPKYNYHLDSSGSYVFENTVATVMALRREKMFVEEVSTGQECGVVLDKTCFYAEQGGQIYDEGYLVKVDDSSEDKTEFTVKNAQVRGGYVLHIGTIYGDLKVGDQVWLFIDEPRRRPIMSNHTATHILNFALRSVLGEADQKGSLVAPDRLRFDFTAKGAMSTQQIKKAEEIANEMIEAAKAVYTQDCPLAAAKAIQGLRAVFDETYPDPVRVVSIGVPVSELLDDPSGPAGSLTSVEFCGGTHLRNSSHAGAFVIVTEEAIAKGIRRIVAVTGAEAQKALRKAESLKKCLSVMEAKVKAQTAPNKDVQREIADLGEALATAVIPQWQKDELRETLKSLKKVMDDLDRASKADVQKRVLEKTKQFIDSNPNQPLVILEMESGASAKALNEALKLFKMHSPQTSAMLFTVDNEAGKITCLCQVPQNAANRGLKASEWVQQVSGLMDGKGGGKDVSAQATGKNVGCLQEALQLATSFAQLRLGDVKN

[3] = biological target: Cys residues in primary human T cells (Homo sapiens, UniProt Q7Z2W4); conditions: ZC3HAV1 C645 (Q7Z2W4)
[4] = biological target: Cys residues in primary human T cells (Homo sapiens, UniProt Q7Z6Z7); conditions: HUWE1 C3372 (Q7Z6Z7)
[5] = biological target: Cys residues in primary human T cells (Homo sapiens, UniProt Q8TB24); conditions: RIN3 C942 (Q8TB24)
[6] = biological target: Cys residues in primary human T cells (Homo sapiens, UniProt Q8WXH0); conditions: SYNE2 C553 (Q8WXH0)
[7] = biological target: Cys residues in primary human T cells (Homo sapiens, UniProt Q93009); conditions: USP7 C315 (Q93009)
[8] = biological target: T2, Cys residues in primary human T cells (Homo sapiens, UniProt Q96GW9); conditions: MARS2 C425 (Q96GW9)
T2 sequence (Q96GW9 30-593): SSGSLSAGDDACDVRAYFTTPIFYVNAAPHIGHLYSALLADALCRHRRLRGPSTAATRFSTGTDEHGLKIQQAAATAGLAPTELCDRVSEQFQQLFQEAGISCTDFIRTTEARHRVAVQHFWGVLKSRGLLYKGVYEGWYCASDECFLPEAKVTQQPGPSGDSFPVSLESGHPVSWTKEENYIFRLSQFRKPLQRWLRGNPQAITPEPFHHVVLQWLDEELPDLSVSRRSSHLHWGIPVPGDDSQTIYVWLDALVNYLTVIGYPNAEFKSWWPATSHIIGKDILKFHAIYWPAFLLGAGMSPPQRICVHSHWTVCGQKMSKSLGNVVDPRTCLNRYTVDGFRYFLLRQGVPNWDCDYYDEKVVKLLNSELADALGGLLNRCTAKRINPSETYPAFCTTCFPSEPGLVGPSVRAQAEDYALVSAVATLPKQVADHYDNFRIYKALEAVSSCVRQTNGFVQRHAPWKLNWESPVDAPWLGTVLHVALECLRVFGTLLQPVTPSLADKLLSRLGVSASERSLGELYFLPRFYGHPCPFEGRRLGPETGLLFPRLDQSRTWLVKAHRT

Cys residues in primary human T cells (Homo sapiens, UniProt Q7Z6Z7), sequence (Q7Z6Z7 whole entry): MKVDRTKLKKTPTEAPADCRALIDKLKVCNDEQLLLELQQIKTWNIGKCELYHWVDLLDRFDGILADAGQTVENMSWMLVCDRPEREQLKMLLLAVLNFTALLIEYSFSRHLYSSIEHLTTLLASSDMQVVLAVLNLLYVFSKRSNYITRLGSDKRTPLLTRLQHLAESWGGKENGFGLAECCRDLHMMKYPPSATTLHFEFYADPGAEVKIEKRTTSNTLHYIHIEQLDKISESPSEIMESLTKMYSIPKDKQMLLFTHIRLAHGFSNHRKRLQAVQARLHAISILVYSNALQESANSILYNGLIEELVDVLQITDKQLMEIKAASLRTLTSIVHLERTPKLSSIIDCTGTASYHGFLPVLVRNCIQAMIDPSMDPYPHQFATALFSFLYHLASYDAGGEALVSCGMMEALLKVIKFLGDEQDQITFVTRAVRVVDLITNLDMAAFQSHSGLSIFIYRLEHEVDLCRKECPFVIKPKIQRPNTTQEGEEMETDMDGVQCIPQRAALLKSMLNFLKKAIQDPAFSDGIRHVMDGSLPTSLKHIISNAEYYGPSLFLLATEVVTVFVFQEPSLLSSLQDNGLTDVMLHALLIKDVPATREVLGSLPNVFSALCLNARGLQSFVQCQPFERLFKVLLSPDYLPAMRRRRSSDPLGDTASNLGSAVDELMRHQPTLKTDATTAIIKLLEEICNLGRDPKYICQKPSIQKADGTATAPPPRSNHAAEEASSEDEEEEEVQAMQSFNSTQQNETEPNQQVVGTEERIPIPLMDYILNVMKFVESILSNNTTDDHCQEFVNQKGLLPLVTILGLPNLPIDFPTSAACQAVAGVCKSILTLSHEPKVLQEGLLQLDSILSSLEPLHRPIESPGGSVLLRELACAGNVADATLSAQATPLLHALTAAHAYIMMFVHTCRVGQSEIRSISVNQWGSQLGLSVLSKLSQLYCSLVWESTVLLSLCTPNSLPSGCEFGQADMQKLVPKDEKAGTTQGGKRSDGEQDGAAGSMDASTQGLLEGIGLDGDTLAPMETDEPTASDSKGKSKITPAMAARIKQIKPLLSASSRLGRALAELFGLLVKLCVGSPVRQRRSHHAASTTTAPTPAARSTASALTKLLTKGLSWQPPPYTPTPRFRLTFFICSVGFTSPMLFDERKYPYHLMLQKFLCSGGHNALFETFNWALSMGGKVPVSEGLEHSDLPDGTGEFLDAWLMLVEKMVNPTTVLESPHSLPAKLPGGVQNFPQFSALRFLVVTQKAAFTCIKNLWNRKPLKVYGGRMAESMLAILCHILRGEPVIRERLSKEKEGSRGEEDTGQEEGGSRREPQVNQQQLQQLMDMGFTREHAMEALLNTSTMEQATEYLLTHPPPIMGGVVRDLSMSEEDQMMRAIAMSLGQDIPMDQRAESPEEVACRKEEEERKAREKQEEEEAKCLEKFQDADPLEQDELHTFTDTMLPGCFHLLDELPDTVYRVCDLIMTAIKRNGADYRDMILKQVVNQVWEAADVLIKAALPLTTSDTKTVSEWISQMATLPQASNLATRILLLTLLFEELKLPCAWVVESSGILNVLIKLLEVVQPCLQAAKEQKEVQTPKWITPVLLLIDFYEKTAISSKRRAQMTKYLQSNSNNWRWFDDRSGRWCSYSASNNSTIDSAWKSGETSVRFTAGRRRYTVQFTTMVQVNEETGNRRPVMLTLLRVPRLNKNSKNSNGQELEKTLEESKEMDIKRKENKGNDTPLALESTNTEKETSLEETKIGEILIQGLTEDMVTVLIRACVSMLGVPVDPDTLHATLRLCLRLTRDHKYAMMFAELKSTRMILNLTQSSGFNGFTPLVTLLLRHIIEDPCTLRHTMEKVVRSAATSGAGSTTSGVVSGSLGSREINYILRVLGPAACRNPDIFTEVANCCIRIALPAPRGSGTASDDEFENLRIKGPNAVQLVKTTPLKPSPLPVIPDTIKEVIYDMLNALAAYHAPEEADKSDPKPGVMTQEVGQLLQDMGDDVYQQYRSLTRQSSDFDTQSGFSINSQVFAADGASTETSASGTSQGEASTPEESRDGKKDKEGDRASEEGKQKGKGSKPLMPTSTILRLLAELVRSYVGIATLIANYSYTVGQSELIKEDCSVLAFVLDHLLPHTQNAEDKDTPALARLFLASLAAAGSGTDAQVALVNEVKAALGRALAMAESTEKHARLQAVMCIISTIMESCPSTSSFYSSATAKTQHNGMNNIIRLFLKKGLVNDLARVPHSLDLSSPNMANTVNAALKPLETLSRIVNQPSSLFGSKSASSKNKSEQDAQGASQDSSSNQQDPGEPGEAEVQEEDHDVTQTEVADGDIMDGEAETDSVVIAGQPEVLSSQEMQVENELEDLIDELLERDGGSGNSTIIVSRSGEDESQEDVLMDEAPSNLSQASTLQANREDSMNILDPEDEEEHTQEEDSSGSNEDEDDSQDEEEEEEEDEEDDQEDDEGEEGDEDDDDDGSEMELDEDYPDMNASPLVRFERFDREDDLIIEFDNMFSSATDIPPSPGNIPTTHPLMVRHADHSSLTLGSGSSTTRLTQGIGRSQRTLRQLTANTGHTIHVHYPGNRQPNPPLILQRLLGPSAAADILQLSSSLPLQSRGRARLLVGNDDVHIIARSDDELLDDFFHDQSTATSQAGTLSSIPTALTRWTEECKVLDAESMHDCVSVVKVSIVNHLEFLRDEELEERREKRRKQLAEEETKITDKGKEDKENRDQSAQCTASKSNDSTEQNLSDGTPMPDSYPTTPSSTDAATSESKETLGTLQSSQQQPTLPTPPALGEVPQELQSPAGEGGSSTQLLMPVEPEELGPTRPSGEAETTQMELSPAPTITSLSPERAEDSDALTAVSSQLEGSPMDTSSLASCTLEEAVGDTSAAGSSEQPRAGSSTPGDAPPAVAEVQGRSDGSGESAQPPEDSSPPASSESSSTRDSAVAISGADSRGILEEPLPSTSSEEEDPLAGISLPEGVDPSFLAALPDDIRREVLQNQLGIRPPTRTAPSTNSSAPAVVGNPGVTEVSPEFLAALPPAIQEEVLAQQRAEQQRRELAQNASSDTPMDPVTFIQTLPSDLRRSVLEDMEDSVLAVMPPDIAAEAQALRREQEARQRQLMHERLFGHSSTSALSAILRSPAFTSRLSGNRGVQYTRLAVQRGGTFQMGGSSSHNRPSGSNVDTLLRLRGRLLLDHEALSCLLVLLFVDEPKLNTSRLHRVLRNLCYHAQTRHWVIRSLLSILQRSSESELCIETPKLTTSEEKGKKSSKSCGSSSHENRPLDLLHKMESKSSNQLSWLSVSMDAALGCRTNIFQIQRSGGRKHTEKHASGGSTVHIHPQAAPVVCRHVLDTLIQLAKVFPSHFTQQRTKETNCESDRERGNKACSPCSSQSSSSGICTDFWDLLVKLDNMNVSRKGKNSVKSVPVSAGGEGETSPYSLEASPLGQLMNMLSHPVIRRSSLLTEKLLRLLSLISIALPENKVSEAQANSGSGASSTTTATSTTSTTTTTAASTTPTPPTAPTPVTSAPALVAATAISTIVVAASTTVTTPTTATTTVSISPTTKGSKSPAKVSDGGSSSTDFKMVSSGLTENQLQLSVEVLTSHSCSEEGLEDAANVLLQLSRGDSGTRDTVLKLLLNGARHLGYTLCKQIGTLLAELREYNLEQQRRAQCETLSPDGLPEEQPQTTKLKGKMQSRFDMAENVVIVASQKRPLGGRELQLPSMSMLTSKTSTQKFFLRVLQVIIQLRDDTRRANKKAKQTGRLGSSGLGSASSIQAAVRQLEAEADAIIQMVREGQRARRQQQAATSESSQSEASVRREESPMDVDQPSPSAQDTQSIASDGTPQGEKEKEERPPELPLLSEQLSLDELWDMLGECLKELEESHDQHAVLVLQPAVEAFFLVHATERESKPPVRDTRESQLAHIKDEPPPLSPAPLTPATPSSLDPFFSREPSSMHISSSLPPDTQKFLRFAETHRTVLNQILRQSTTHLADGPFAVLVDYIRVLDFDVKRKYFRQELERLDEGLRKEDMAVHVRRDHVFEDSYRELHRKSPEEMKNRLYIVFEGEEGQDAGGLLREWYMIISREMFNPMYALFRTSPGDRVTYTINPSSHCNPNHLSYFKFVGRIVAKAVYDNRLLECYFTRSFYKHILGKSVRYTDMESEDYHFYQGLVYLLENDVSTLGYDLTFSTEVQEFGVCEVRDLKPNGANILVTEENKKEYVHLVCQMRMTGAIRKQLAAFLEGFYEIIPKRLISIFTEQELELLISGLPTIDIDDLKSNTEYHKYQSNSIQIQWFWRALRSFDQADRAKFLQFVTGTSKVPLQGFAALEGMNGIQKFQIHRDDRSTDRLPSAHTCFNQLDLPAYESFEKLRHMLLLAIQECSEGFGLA
Cys residues in primary human T cells (Homo sapiens, UniProt P21580), sequence (P21580 whole entry): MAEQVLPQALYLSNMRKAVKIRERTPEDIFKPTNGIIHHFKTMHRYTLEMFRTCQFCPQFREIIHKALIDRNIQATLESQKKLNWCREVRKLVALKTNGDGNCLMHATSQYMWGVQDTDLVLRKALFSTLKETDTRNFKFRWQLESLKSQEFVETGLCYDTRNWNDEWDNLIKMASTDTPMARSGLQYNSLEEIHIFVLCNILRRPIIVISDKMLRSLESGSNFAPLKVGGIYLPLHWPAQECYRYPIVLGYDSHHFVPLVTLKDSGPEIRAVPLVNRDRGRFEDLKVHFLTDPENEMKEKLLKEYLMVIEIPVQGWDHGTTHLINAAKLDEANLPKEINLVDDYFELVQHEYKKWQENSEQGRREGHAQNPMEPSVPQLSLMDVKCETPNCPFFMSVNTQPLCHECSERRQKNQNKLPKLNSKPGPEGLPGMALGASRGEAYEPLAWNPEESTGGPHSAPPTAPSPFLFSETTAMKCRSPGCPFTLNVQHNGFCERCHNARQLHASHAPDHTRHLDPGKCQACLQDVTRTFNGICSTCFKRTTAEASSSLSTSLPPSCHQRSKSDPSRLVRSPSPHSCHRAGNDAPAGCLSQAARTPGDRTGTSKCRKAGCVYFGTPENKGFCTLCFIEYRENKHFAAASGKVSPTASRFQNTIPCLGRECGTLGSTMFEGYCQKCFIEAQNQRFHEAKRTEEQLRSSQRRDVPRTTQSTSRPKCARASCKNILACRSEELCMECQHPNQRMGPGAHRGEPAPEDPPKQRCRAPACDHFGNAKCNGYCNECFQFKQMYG

COC(=O)/C=C/C(=O)OC [DMF, dimethyl fumarate]
R value (DMSO/DMF) ([1]; DMF 10 μM 4h): 1.58 | R value (DMSO/DMF) ([1]; DMF 50 μM 2h): 5.34 | R value (DMSO/DMF) ([2]; DMF 10 μM 4h): 2.84 | R value (DMSO/DMF) ([2]; DMF 50 μM 1h): 9.34 | R value (DMSO/DMF) ([2]; DMF 50 μM 2h): 10.16 | R value (DMSO/DMF) ([2]; DMF 50 μM 4h): 12.75 | R value (DMSO/DMF) ([3]; DMF 10 μM 4h): 1.46 | R value (DMSO/DMF) ([3]; DMF 25 μM 4h): 2.52 | R value (DMSO/DMF) ([3]; DMF 50 μM 1h): 2.36 | R value (DMSO/DMF) ([3]; DMF 50 μM 2h): 3.13 | R value (DMSO/DMF) ([3]; DMF 50 μM 4h): 6.28 | R value (DMSO/DMF) ([4]; DMF 10 μM 4h): 1.58 | R value (DMSO/DMF) ([4]; DMF 50 μM 1h): 2.28 | R value (DMSO/DMF) ([4]; DMF 50 μM 2h): 4.43 | R value (DMSO/DMF) ([4]; DMF 50 μM 4h): 10.48 | R value (DMSO/DMF) ([5]; DMF 50 μM 2h): 3 | R value (DMSO/DMF) ([5]; DMF 50 μM 4h): 5.7 | R value (DMSO/DMF) ([6]; DMF 10 μM 4h): 1.61 | R value (DMSO/DMF) ([6]; DMF 50 μM 2h): 3.29 | R value (DMSO/DMF) ([6]; DMF 50 μM 4h): 4.05 | R value (DMSO/DMF) ([7]; DMF 10 μM 4h): 1.9 | R value (DMSO/DMF) ([7]; DMF 50 μM 1h): 5.33 | R value (DMSO/DMF) ([7]; DMF 50 μM 2h): 14.06 | R value (DMSO/DMF) ([8]; DMF 10 μM 4h): 1.84 | R value (DMSO/DMF) ([8]; DMF 25 μM 4h): 2.86 | R value (DMSO/DMF) ([8]; DMF 50 μM 1h): 2.23 | R value (DMSO/DMF) ([8]; DMF 50 μM 2h): 4.16 | R value (DMSO/DMF) ([8]; DMF 50 μM 4h): 5.3
